Data reported in article PMC6956804, “Potent antibacterial activity of MSI-1 derived from the magainin 2 peptide against drug-resistant bacteria” (Theranostics, 2020).
Counter-ions that a name gives are not always drawn.

Assays:
[1] = tested on: MSSA D1; assay: microbe, parasite or virus in culture; assay type: cell-based, Staphylococcus aureus; settings: Staphylococcus aureus; MSSA D1, clinical strain; read-out: MIC
Experimental: (§1) Bacterial strains were purchased from the American Type Culture Collection (ATCC). All clinical strains were isolated from human clinical specimens by the Medical Laboratory Center of Zhongda Hospital (Nanjing, Jiangsu, China). Ndm-1, tem-1, ctx-m-1, shv-1 -carrying bacteria were constructed as previously described. The recombinant bacteria carrying drug-resistant genes were prepared in LB nutrient and induced by IPTG (1 mM) for 4 h before text. Other bacterial strains were respectively prepared in MHB and Columbia Blood Agar Base.
(§2) A standard micro-broth serial dilution assay was used to measure MIC of peptides. MIC was obtained by a microplate reader at 600 nm. MBC was determined as previously described.

[2] = tested on: MRSA M108; assay: microbe, parasite or virus in culture; assay type: cell-based, Staphylococcus aureus; settings: Staphylococcus aureus, MRSA
Experimental: as §1, §2

[3] = tested on: MRSA M101; assay: microbe, parasite or virus in culture; assay type: cell-based, Staphylococcus aureus; settings: Staphylococcus aureus, MRSA
Experimental: as §1, §2

[4] = tested on: MSSA D4; assay: microbe, parasite or virus in culture; assay type: cell-based, Staphylococcus aureus; settings: Staphylococcus aureus; MSSA D4, clinical strain; read-out: MIC
Experimental: as §1, §2

[5] = tested on: PRSP P105; assay: microbe, parasite or virus in culture; assay type: cell-based, Streptococcus pneumoniae; settings: Streptococcus pneumoniae, PRSP
Experimental: as §1, §2

[6] = tested on: PISP F34; assay: microbe, parasite or virus in culture; assay type: cell-based, Streptococcus pneumoniae; settings: Streptococcus pneumoniae; PISP F34, clinical strain; read-out: MIC
Experimental: as §1, §2

[7] = tested on: PRSP P112; assay: microbe, parasite or virus in culture; assay type: cell-based, Streptococcus pneumoniae; settings: Streptococcus pneumoniae, PRSP
Experimental: as §1, §2

[8] = tested on: PISP F22; assay: microbe, parasite or virus in culture; assay type: cell-based, Streptococcus pneumoniae; settings: Streptococcus pneumoniae; PISP F22, clinical strain; read-out: MIC
Experimental: as §1, §2

[9] = tested on: E. coli A5 (ESBLs (+)); assay: microbe, parasite or virus in culture; assay type: cell-based; settings: Escherichia coli
Experimental: as §1, §2

[10] = tested on: P. aeruginosa ATCC27853; assay: microbe, parasite or virus in culture; assay type: cell-based; settings: Pseudomonas aeruginosa, read-out: MIC
Experimental: as §1, §2

[11] = tested on: P. aeruginosa T8 (ESBLs (+)); assay: microbe, parasite or virus in culture; assay type: cell-based; settings: Pseudomonas aeruginosa
Experimental: as §1, §2

[12] = tested on: E. coli A9 (ESBLs (+)); assay: microbe, parasite or virus in culture; assay type: cell-based; settings: Escherichia coli
Experimental: as §1, §2

[13] = tested on: E. faecalis; assay: microbe, parasite or virus in culture; assay type: cell-based; settings: Enterococcus faecalis, read-out: MIC
Experimental: as §1, §2

[14] = tested on: E. cloacae S1 (AmpC (+)); assay: microbe, parasite or virus in culture; assay type: cell-based; settings: Enterobacter cloacae
Experimental: as §1, §2

[15] = tested on: S. pneumoniae ATCC 49619; assay: microbe, parasite or virus in culture; assay type: cell-based; settings: Streptococcus pneumoniae, ATCC49619, read-out: MIC
Experimental: as §1, §2

[16] = tested on: E. faecium; assay: microbe, parasite or virus in culture; assay type: cell-based; settings: Enterococcus faecium, read-out: MIC
Experimental: as §1, §2

[17] = tested on: E. coli A2 (ESBLs (+)); assay: microbe, parasite or virus in culture; assay type: cell-based; settings: Escherichia coli
Experimental: as §1, §2

[18] = tested on: S. epidermidis ATCC35984; assay: microbe, parasite or virus in culture; assay type: cell-based; settings: Staphylococcus epidermidis, read-out: MIC
Experimental: as §1, §2

[19] = tested on: Shigella flexneri; assay: microbe, parasite or virus in culture; assay type: cell-based
Experimental: as §1, §2

[20] = tested on: P. aeruginosa T6 (ESBLs (+)); assay: microbe, parasite or virus in culture; assay type: cell-based; settings: Pseudomonas aeruginosa
Experimental: as §1, §2

[21] = tested on: P. aeruginosa T1 (ESBLs (+)); assay: microbe, parasite or virus in culture; assay type: cell-based; settings: Pseudomonas aeruginosa
Experimental: as §1, §2

[22] = tested on: S. aureus ATCC25923; assay: microbe, parasite or virus in culture; assay type: cell-based; settings: Staphylococcus aureus, read-out: MIC
Experimental: as §1, §2

[23] = tested on: E. cloacae S3 (AmpC (+)); assay: microbe, parasite or virus in culture; assay type: cell-based; settings: Enterobacter cloacae
Experimental: as §1, §2

[24] = tested on: E. coli ATCC25922; assay: microbe, parasite or virus in culture; assay type: cell-based; settings: Escherichia coli, micro-broth serial dilution, 600 nm, read-out: MIC
Experimental: as §1, §2

[25] = tested on: K. peneumoniae B9 (ESBLs (+)); assay: organism not typed; assay type: cell-based
Experimental: as §1, §2

[26] = tested on: K. peneumoniae ATCC4352; assay: organism not typed; assay type: cell-based; settings: read-out: MIC
Experimental: as §1, §2

[27] = tested on: K. peneumoniae B6 (ESBLs (+)); assay: organism not typed; assay type: cell-based
Experimental: as §1, §2

[28] = tested on: K. peneumoniae B4 (ESBLs (+)); assay: organism not typed; assay type: cell-based
Experimental: as §1, §2

[29] = tested on: MSSE E3; assay: microbe, parasite or virus in culture; assay type: cell-based, Staphylococcus epidermidis; settings: Staphylococcus epidermidis; MSSE E3, clinical strain; read-out: MIC
Experimental: as §1, §2

[30] = tested on: MRSE N104; assay: microbe, parasite or virus in culture; assay type: cell-based, Staphylococcus epidermidis; settings: Staphylococcus epidermidis, MRSE
Experimental: as §1, §2

[31] = tested on: MSSE E8; assay: microbe, parasite or virus in culture; assay type: cell-based, Staphylococcus epidermidis; settings: Staphylococcus epidermidis; MSSE E8, clinical strain; read-out: MIC
Experimental: as §1, §2

[32] = tested on: MRSE N109; assay: microbe, parasite or virus in culture; assay type: cell-based, Staphylococcus epidermidis; settings: Staphylococcus epidermidis, MRSE
Experimental: as §1, §2

[33] = tested on: Penicillin-resistant E. coli; assay: Local E. coli infection in scalded mouse model; assay type: in vivo, mice; settings: 7th day; MSI-1 5 and 10 mg/kg, polymyxin B; p<0.01 vs the model group
Experimental: To further investigate whether MSI-1 could protect from bacterial infection of the skin, mice were anesthetized with pentobarbital sodium (50 mg/kg, i.p) and shaved on the dorsal surfaces. The depilated skin was secured with 2-cm-diameter plastic containers that filled up with boiling water at contact time 10 s. Afterwards, a full-thickness wound (2 cm in diameter) was cut on the burned skin of each mouse. Penicillin-resistant E. coli suspension (100 µl, 1× 10^10 CFU/ml) was slowly inoculated over wound with a pipette tip, and a gentle stream of air was aimed over the inoculation site until skin appeared wet but absent of any standing volume from the inoculum suspension. Two hours later, vehicle (3% CMC-Na), MSI-1 or polymyxin, which was suspended in sterile CMC-Na (3%) in PBS at concentration of 10, 5, 2.5 mg/ml (MSI-1) or 5 mg/ml (polymyxin), was inoculated on the same area with a pipette tip, 1 ml/kg, once a day (n=15 per group). Mice were fed in cages individually to avoid cross infection and were treated daily for 7 consecutive days. At 3rd and 7th days, cutaneous wound healing and bacteria counts in skin lesion were measured. Moreover, 12 h after the last treatment, blood samples were collected from the retro-orbital venous plexus under anesthesia (pentobarbital sodium, 50 mg/kg). Finally, all animals were euthanized by cervical dislocation to collect the lung samples for counting live bacteria. The contents of TNF-α and IL-6 in skin homogenates and serum were measured by ELISA. Skin lesion was fixed by 4% paraformaldehyde for H&E staining. The expression levels of EGF and VEGF in skin lesion were examined by immunohistochemistry. In addition, the wound scratch assay was also performed on HaCaT cells to further test whether MSI-1 improved wound healing by promoting keratinocyte migration.

[34] = tested on: penicillin resistant-E. coli isolates; assay: Acute systemic E. coli infection in mice; assay type: in vivo, BALB/c mice; settings: 7 days; polymyxin 5 mg/kg
Experimental: BALB/c mice (5-6 weeks) were purchased from the Laboratory Animal Center of Yangzhou University (Yangzhou, Jiangsu, China) and intraperitoneally (ip) injected with 500 μl (5× 10^8 CFU/ml) of penicillin resistant-E. coli isolates. Mice in MSI-1 treated groups (10, 5 and 2.5 mg/kg, n=16/group) and polymyxin treated group (5 mg/kg) were administered after 2 h post bacterial inoculation. After 12 h, six mice in each group were anesthetized with pentobarbital sodium (50 mg/kg body weight, i.p) and euthanized by cervical dislocation to count bacterial colonies in blood, lung, spleen, kidney and liver. Lung homogenates were collected for Gram staining. Moreover, serum TNF-α and IL-6 were measured by ELISA kits. The procedure of H&E staining for mouse lung was adapted from a published report. The survival and weight of other mice were monitored daily up to 7 days.

Compound: CC1(C)S[C@@H]2[C@H](NC(=O)Cc3ccccc3)C(=O)N2[C@H]1C(=O)O [Penicillin, Penicillin G sodium salt]
- MIC [1]: 0.5 µg/mL
- MIC [2]: > 256 µg/mL
- MIC [3]: > 256 µg/mL
- MIC [4]: 0.125 µg/mL
- MIC [5]: > 256 µg/mL
- MIC [6]: 0.5 µg/mL
- MIC [7]: > 256 µg/mL
- MIC [8]: 1 µg/mL
- MIC [9]: > 256 µg/mL
- MIC [10]: 0.5 µg/mL
- MIC [11]: > 256 µg/mL
- MIC [12]: > 256 µg/mL
- MIC [13]: > 256 µg/mL
- MIC [14]: > 256 µg/mL
- MIC [15]: 0.25 µg/mL
- MIC [16]: > 256 µg/mL
- MIC [17]: > 256 µg/mL
- MIC [18]: 0.5 µg/mL
- MIC [19]: > 256 µg/mL
- MIC [20]: > 256 µg/mL
- MIC [21]: > 256 µg/mL
- MIC [22]: 0.125 µg/mL
- MIC [23]: > 256 µg/mL
- MIC [24]: 0.25 µg/mL
- MIC [25]: > 256 µg/mL
- MIC [26]: 1 µg/mL
- MIC [27]: > 256 µg/mL
- MIC [28]: > 256 µg/mL
- MIC [29]: 2 µg/mL
- MIC [30]: > 256 µg/mL
- MIC [31]: 1 µg/mL
- MIC [32]: > 256 µg/mL

Compound: Polymyxin B
- bacterial colonies in the lung and blood [33]: obviously decreased
- body weight [34]: marked weight maintenance effect
